These results are taken from article PMC9555642 (PLoS ONE, 2022).

This assay deals with T1, HDAC10 (Homo sapiens, UniProt Q969S8).
T1 construct: purchased Eurofins Pharma Discovery Services 2662
T1 sequence (Q969S8 1-669): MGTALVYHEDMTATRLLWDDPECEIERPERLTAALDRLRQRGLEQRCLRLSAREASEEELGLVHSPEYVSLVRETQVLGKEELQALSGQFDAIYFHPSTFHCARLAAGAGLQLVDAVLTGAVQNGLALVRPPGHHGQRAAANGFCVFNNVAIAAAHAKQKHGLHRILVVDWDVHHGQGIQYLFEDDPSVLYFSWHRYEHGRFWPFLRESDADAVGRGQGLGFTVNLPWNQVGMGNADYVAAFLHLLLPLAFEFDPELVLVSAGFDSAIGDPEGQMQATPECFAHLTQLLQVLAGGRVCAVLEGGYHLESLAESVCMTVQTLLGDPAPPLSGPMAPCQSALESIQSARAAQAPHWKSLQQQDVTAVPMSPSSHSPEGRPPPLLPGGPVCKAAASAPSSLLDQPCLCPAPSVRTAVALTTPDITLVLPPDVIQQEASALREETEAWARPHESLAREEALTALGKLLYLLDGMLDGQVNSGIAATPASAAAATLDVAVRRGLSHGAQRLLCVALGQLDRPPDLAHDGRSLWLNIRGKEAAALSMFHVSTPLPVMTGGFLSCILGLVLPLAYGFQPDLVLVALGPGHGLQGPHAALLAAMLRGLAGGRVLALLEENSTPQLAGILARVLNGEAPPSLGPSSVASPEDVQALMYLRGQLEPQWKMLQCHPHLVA
In words: HDAC enzymatic activity (Eurofins). Type of assay: biochemical.

In general, IC50 refers to the concentration at which inhibition is half-maximal. Consider `O=C(CCCCCCNC(=O)c1cnc(N(c2ccccc2)c2ccccc2)nc1)NO` [Ricolinostat], for which the IC50 is 901 nM.
